From US7893271B2, “Benzimidazole carbamates and (thio) carbamates, and the synthesis and use thereof” (Intervet International B.V., priority 2005, dated 2011)
In brackets after ≈: the same amount, converted by molar mass. Several values for one entry are separate records, joined by “and”; a condition that tells them apart may be missing. Identical values can stand only once. Like-named read-outs stand apart in the source and are kept apart here.

Columns and labels:
[1] = tested on: Haemonchus contortus; assay: anthelmintic efficacy in animals experimentally infected with Haemonchus contortus; type: in vivo, Meriones unguiculatus
Description: (§1) The compounds were tested at doses of 3 mg/kg bodyweight (BW), 1 mg/kg BW and 0.3 mg/kg BW.
The animals were orally infected with L3-larvae of H. contortus. On D 10 post infectionem (PI) animals were treated once IP, SC or PO with the test compounds in 10% DMF/90% water at doses of 3.0 mg/kg BW, 1.0 mg/kg BW or 0.3 mg/kg BW. Three days after treatment animals were necropsied and larvae burden in stomachs was determined. Efficacy was defined as the reduction of the mean larvae count (geometric mean) in the treatment groups in comparison to the control group. The dose-response relationship was investigated by calculating Pearson's coefficient of correlation.

[2] = tested on: T. axei; assay: anthelmintic efficacy in animals experimentally infected with Trichostrongylus axei; type: in vivo, Meriones unguiculatus
Description: as §1
(§2) The animals were orally infected L3-larvae of each T. axei and T. colubriformis. On D 19 post infectionem (PI) animals were treated once IP, SC or PO with the test compounds in 10% DMF/90% water a dose of 3 mg/kg BW, 1 mg/kg BW or 0.3 mg/kg BW. Three days after treatment animals were necropsied and worm burden in stomach and small intestine was determined. Efficacy was defined as the reduction of the mean worm count (geometric mean) in the treatment groups in comparison to the control group. The dose-response relationship was investigated by calculating Pearson's coefficient of correlation.

[3] = tested on: T. colubriformis; assay: anthelmintic efficacy in animals experimentally infected with T. colubriformis; type: in vivo, Meriones unguiculatus
Description: as §1, §2

[4] = solubility in water of compounds of the invention
[5] = in water; literature; cited from earlier work
[6] = reported; cited from earlier work
[7] = tested on: Ascaridia galli (intestinal roundworm of chicken), larval stage 3 (L3); assay: in vitro larval assay, minimum effective concentration; type: cell-based; conditions: day 5, 20 larvae per well, microscopic examination
Description: (§3) Anthelmintic effects of the compounds of the present invention were tested in vitro using gut welling larval stages of two parasitic nematode species: Ascaridia galli (intestinal roundworm of chicken), larval stage 3 (L3), and Oesophagostomum dentatum (nodular worm of swine), larval stages 3 and 4 (L3; LA).
(§4) Principle of the assays: Various concentrations of compounds were incubated in 96 well microtiter plates, in which parasites were then distributed at 20 larvae per well. The anthelmintic effects were classified at day 5 by microscopic examination assessing mortality, damage, motility, progression of development and neutral red uptake by the larvae in comparison to a DMSO-control and the standard anthelmintics fenbendazole. The anthelmintic effects were defined by the minimum effective concentration (MEC) as reflected in table 1.

[8] = tested on: Oesophagostomum dentatum (nodular worm of swine), larval stages 3 and 4; assay: as above; type: cell-based; conditions: day 5, 20 larvae per well
Description: as §3, §4

[9] = 0.3 mg/kg BW once, IP (fenbendazole equivalent 0.3; Compound A 0.2 mg/kg)
[10] = 0.3 mg/kg BW once, PO (fenbendazole equivalent 0.3; Compound A 0.2 mg/kg)
[11] = 0.3 mg/kg BW once, SC (fenbendazole equivalent 0.3; Compound A 0.2 mg/kg)
[12] = 1 mg/kg BW once, IP (fenbendazole equivalent 1.0; Compound A 0.6 mg/kg)
[13] = 1 mg/kg BW once, PO (fenbendazole equivalent 1.0; Compound A 0.6 mg/kg)
[14] = 1 mg/kg BW once, SC (fenbendazole equivalent 1.0; Compound A 0.6 mg/kg)
[15] = 3 mg/kg BW once, IP (fenbendazole equivalent 3.0; Compound A 1.8 mg/kg)
[16] = 3 mg/kg BW once, PO (fenbendazole equivalent 3.0; Compound A 1.8 mg/kg)
[17] = 3 mg/kg BW once, SC (fenbendazole equivalent 3.0; Compound A 1.8 mg/kg)
[18] = 3 mg/kg BW once, IP (fenbendazole equivalent 3.0; Compound A 1.8 mg/kg), listed as Fenbendazole
[19] = 3 mg/kg BW once, PO (fenbendazole equivalent 3.0; Compound A 1.8 mg/kg), listed as Fenbendazole
[20] = 3 mg/kg BW once, SC (fenbendazole equivalent 3.0; Compound A 1.8 mg/kg), listed as Fenbendazole

Molecule	Reduction worm number (%) H. contortus larvae [1, 9]	Reduction worm number (%) H. contortus larvae [1, 10]	Reduction worm number (%) H. contortus larvae [1, 11]	Reduction worm number (%) H. contortus larvae [1, 12]	Reduction worm number (%) H. contortus larvae [1, 13]	Reduction worm number (%) H. contortus larvae [1, 14]	Reduction worm number (%) H. contortus larvae [1, 15]	Reduction worm number (%) H. contortus larvae [1, 16]	Reduction worm number (%) H. contortus larvae [1, 17]	Reduction worm number (%) T. axei [2, 9]	Reduction worm number (%) T. axei [2, 10]	Reduction worm number (%) T. axei [2, 11]	Reduction worm number (%) T. axei [2, 12]	Reduction worm number (%) T. axei [2, 13]	Reduction worm number (%) T. axei [2, 14]	Reduction worm number (%) T. axei [2, 15]	Reduction worm number (%) T. axei [2, 16]	Reduction worm number (%) T. axei [2, 17]	Reduction worm number (%) T. colubriformis [3, 9]	Reduction worm number (%) T. colubriformis [3, 10]	further results
(5- and 6-phenylsulfanyl-1-phosphonooxymethyl-1(H)-benzoimidazol-2-yl)-carbamic acid methyl esters [Compound A]	65.02%	87.00%	47.40%	90.65%	88.62%	87.61%	93.81%	90.81%	94.84%	69.66%	59.20%	−43.64%	83.98%	96.71%	82.98%	100.00%	98.00%	100.00%	−50.17%	−3.71%	overall efficacy compared with fenbendazole ([1]; H. contortus, all doses and routes): same efficacy as treatment with fenbendazole; Reduction worm number (%) T. axei ([2]; 0.3 mg/kg BW once, SC (fenbendazole equivalent 0.3; Compound A 0.2 mg/kg), listed as compound A): 43.64%; Reduction worm number (%) T. axei ([2]; 3 mg/kg BW once, IP (fenbendazole equivalent 3.0; Compound A 1.8 mg/kg), listed as compound A): 100%; Reduction worm number (%) T. axei ([2]; 3 mg/kg BW once, SC (fenbendazole equivalent 3.0; Compound A 1.8 mg/kg), listed as compound A): 100%; overall efficacy compared with fenbendazole ([2]; T. axei, all doses and routes): same efficacy as treatment with fenbendazole; Reduction worm number (%) T. colubriformis [3, 11]: −106.50%; Reduction worm number (%) T. colubriformis [3, 12]: 28.18%; Reduction worm number (%) T. colubriformis [3, 13]: 37.27%; Reduction worm number (%) T. colubriformis [3, 14]: 68.61%; Reduction worm number (%) T. colubriformis [3, 15]: 93.26%; Reduction worm number (%) T. colubriformis [3, 16]: 100.00%; Reduction worm number (%) T. colubriformis [3, 17]: 85.70%; overall efficacy compared with fenbendazole ([3]; T. colubriformis, all doses and routes): same efficacy as treatment with fenbendazole
(5- and 6-phenylsulfanyl-1-phosphonooxymethyl-1(H)-benzoimidazol-2-yl)-carbamic acid methyl esters di-sodium salts																					solubility in water [4]: 132 mM and 67 g/L
CCCSc1ccc2c(c1)nc(NC(=O)OC)n2COP(=O)([O-])[O-].[Na+].[Na+] [(1-phosphonooxymethyl-5- and 6-propylsulfanyl-1(H)-benzoimidazol-2-yl)-carbamic acid methyl esters]																					solubility ([4]; water): ≥ 50 mM
COc1ccc2[nH]c([S+]([O-])Cc3ncc(C)c(OC)c3C)nc2c1 (centres unmarked) [omeprazole]																					solubility [5]: 500 µg/mL (≈ 1450 µM)
CCCSc1ccc([N+](=O)[O-])c(N/C(=N/CCS(=O)(=O)O)NC(=O)OC)c1 [netobimin]																					embryonal toxicity [6]: reported to cause embryonal toxicity
COC(=O)Nc1nc2ccc(Sc3ccccc3)cc2[nH]1 [fenbendazole, reference compound]	80.63%	91.73%	88.36%	89.33%	78.05%	89.16%	100.00%	96.49%	95.10%	−283.85%	−115.44%	82.15%	80.94%	88.80%	82.15%	100%	100%	100%	79.33%	68.75%	Minimum effective concentrations A. galli (L3) [7]: 0.050 µM; Minimum effective concentrations O. dentatum (L3) ([8]; L3): 1.000 µM; Minimum effective concentrations O. dentatum (L4) ([8]; L4): 0.025 µM; Reduction worm number (%) T. axei [2, 18]: 100.00%; Reduction worm number (%) T. axei [2, 19]: 100.00%; Reduction worm number (%) T. axei [2, 20]: 100.00%; Reduction worm number (%) T. colubriformis [3, 11]: 43.18%; Reduction worm number (%) T. colubriformis [3, 12]: 80.04%; Reduction worm number (%) T. colubriformis [3, 13]: 80.04%; Reduction worm number (%) T. colubriformis [3, 14]: 81.10%; Reduction worm number (%) T. colubriformis [3, 15]: 100%; Reduction worm number (%) T. colubriformis [3, 18]: 100.00%; Reduction worm number (%) T. colubriformis [3, 16]: 100%; Reduction worm number (%) T. colubriformis [3, 19]: 100.00%; Reduction worm number (%) T. colubriformis [3, 17]: 100%; Reduction worm number (%) T. colubriformis [3, 20]: 100.00%; solubility [5]: lower than 0.05 μg/mL
